PubChem BioAssay AID624436 (The Scripps Research Institute Molecular Screening Center, 2012)
The source made the active and inactive calls.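 Rule for the calls: active = no compound was called active, only the inactive limit is stated; inactive = inhibition below 30% at 50 µM.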

Molecular target: Serine/threonine-protein phosphatase PP1-alpha catalytic subunit (Homo sapiens) (UniProt P62136)
Assay: PP1alpha phosphatase inhibition, late-stage follow-up, selectivity assay for PP5 inhibitor project, biochemical, OMFP substrate, fluorescence, powder samples, round 5 (AID 624436)
Details: purified PP1alpha, OMFP dephosphorylation fluorescence; at 50 µM; hits give high values

Serine/threonine-protein phosphatase PP1-alpha catalytic subunit (Homo sapiens), sequence (P62136 whole entry, looked up): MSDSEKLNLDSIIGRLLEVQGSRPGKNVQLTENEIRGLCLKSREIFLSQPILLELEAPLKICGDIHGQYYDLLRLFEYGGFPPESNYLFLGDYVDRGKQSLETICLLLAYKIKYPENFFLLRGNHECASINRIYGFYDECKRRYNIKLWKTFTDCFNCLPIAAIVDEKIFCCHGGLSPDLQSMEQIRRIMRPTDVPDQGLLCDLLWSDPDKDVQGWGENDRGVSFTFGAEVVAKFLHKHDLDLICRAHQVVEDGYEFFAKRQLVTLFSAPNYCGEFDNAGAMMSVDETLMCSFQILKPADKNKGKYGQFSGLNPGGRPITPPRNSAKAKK

Structure (SMILES) | inhibition
O=C(O)c1n[nH]nc1-c1ccccc1C(F)(F)F | 7% (inactive)
O=C(O)c1n[nH]nc1-c1ccccn1 | 8.42% (inactive)
CC(C)Oc1ccccc1-c1n[nH]nc1C(=O)O | 9.97% (inactive)
CCOc1ccccc1-c1n[nH]nc1C(=O)O | 15.5% (inactive)
O=C(O)c1n[nH]nc1-c1cccnc1 | 1.43% (inactive)
Cc1cccc(C)c1-c1n[nH]nc1C(=O)O | 6.84% (inactive)

More lines, now with the values ahead:

inhibition | Structure (SMILES)
10.4% (inactive) | Cc1ccccc1-c1n[nH]nc1C(=O)O
4.43% (inactive) | O=C(O)c1[nH]ccc1-c1ccccc1
0.415% (inactive) | O=C(O)c1n[nH]nc1-c1ccccc1-c1ccccc1
2.41% (inactive) | CCc1ccccc1-c1n[nH]nc1C(=O)O
3.75% (inactive) | CC(C)c1ccccc1-c1n[nH]nc1C(=O)O
